IC50 and melting point data for 24 molecules are collected here from patent US7732603B2, “Organic compounds as agents for the treatment of aldosterone mediated conditions” (Novartis AG, priority 2002, dated 2010).

Counter-ions that a name gives are not always drawn.

In the first data set the target is T1, aldosterone synthase (Rattus norvegicus, UniProt P30099).
T1 construct: The adrenals are decapsulated to obtain the glomerulosa tissue; The tissue is homogenized in a glass homogenizer; from tissue; host or cells: rat adrenal glomerulosa tissue homogenate (900 x g supernatant), sodium-depleted Sprague-Dawley rats
T1 sequence (P30099 35-510): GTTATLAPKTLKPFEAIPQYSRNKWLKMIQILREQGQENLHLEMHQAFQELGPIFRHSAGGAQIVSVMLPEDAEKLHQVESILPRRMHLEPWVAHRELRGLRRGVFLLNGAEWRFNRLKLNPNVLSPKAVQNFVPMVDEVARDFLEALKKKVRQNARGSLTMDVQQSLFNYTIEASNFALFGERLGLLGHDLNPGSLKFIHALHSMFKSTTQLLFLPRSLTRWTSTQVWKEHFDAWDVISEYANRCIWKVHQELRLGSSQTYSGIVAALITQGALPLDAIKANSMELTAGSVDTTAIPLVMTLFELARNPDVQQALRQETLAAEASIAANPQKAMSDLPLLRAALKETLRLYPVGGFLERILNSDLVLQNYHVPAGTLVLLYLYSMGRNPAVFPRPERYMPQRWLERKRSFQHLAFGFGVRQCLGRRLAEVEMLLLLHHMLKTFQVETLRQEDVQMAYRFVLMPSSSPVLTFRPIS
Kind of data set: aldosterone synthase inhibitory activity in vitro (rat adrenal glomerulosa homogenate, conversion of [3H]corticosterone). Format: biochemical. Particulars: read-out: inhibit the aldosterone synthase activity with an IC50 value. The source says:
The aldosterone synthase inhibitory activity in vitro may be determined as follows:
Adult male Sprague-Dawley rats weighing 125-150 g are obtained from Harlan Farms. All animals are caged in pairs and maintained under standard conditions of light and temperature. The animals are placed on a sodium depleted diet (0.01-0.02%) from Harland Teklad, Madison Wis. (cat# TD90228) and maintained on normal drinking water ad libitum. The animals are maintained on this diet for two to four weeks prior to harvesting the adrenal glomerulosa cells. The rats are killed by CO2 inhalation, and the adrenals are immediately removed and placed in the same ice-cold buffer used during homogenization and assay of the enzyme preparation. The adrenals are decapsulated to obtain the glomerulosa tissue. The tissue is homogenized in a glass homogenizer containing Tris assay buffer (8.5 mM MgCl2, 2.7 mM CaCl2, 3.13 mM KCl, 7.59 mM NaCl, 0.1% TEA and 50 mM Tris HCl adjusted to pH 7.4). The homogenate is diluted so that 37.5 mg of glomerulosa tissue is in each mL of buffer. […] The plates are scanned for radioactivity with a Bioscan System 200 Imaging Scanner (Bioscan, Ish. DC). The two products of the aldosterone synthase, 18-OH-corticosterone and aldosterone are scraped and counted in a liquid scintillation counter (Beckman LS6000TA, Beckman Instr., Palo Alto, Calif.).
The IC50s are determined from a logit-log plot (pseudo-Hill plot) according to the equation (see Pratt and Taylor, Eds, “Principles of Drug Action”, Churchill Livingstone Inc, NY (1990)): log P/(100−P)=n log[I][…] where P is the percent competition of specific binding in the presence of a given concentration of inhibitor (I). The slope (Hill Coefficient) and x intercept (IC50) are determined by linear regression of the experimental data. The Km(app) is calculated by a computer program according to the Hanes equation (see Cornish-Bowden, Ed., “Principles of Enzyme Kinetics”, Butterworth & Co., Boston, Mass. (1976)): s/v=Km/V+s/V where Km=Michaelis constant, V=maximum velocity, s=substrate concentration, v=velocity.
What is called IC50 is the concentration needed to halve the response being measured. Regarding `N#Cc1ccc(C2C(=O)N(CC3CC3)Cc3cncn32)cc1` (stereo not drawn) [Example 1, 4-(7-Cyclopropylmethyl-6-oxo-5,6,7,8-tetrahydro-imidazo[1,5-a]pyrazin-5-yl)-benzonitrile], the half-inhibitory concentration (IC50) is about 12 nM.

For the molecule `N#Cc1ccc(C2C(=O)N(Cc3ccccc3)Cc3cncn32)cc1` (stereo not drawn) [Example 3, 4-(7-Benzyl-6-oxo-5,6,7,8-tetrahydro-imidazo[1,5-a]pyrazin-5-yl)-benzonitrile], the IC50 was about 4 nM.

Regarding `Cl.O=C1C(c2cccc(Br)c2)n2cncc2CN1CC1CC1` (stereo not drawn) [Example 32, 5-(3-Bromo-phenyl)-7-cyclopropylmethyl-7,8-dihydro-imidazo[1,5-a]pyrazin-6-one hydrochloride], the IC50 was about 9 nM.

System in another data set: not given
Assay: not given
Conditions: not given
As usually defined, the melting point is the temperature, or range, at which the solid turns liquid. Consider `O=C1C(c2ccc(-c3ccccc3)cc2)n2cncc2CN1Cc1ccc(F)cc1` (stereo not drawn) [Example 78, 5-Biphenyl-4-yl-7-(4-fluoro-benzyl)-7,8-dihydro-imidazo[1,5-a]pyrazin-6-one], for which the melting point lay within 189 to 190 °C. Same read-out and setting: with `CN1Cc2cncn2C(c2ccc(Br)cc2)C1=O` (stereo not drawn) [Example 20, 5-(4-Bromo-phenyl)-7-methyl-7,8-dihydro-imidazo[1,5-a]pyrazin-6-one] the figure was 143 to 144 °C; with `Cl.N#Cc1cccc(C2C(=O)N(CCc3ccc(F)cc3)Cc3cncn32)c1` (stereo not drawn), 221 to 223 °C.

Turning to `Cl.O=C1C(c2cccc(Br)c2)n2cncc2CN1CCc1ccccc1` (stereo not drawn), the melting point is 205 to 207 °C. The same measure, in the same setting: with `Cl.O=C1C(c2cccc(Br)c2)n2cncc2CN1Cc1ccccc1` (stereo not drawn) the figure was 249 to 251 °C. In turn, `N#Cc1ccc(C2C(=O)N(CC3CC3)Cc3cncn32)cc1` (stereo not drawn) [Example 1, 4-(7-Cyclopropylmethyl-6-oxo-5,6,7,8-tetrahydro-imidazo[1,5-a]pyrazin-5-yl)-benzonitrile] displayed a melting point of 146 to 147 °C.

As to `COC(=O)c1ccc(C2C(=O)N(Cc3ccccc3)Cc3cncn32)cc1.Cl` (stereo not drawn), the melting point was in the range of 236 to 238 °C. Same read-out and setting: the same measure for `O=C1C(c2cccc(Br)c2)n2cncc2CN1Cc1ccccn1` (stereo not drawn) [Example 53, 5-(3-Bromo-phenyl)-7-pyridin-2-ylmethyl-7,8-dihydro-imidazo[1,5-a]pyrazin-6-one]: 52 to 56 °C.

On to `Cl.N#Cc1ccc(C2C(=O)N(Cc3cccc(C(F)(F)F)c3)Cc3cncn32)cc1` (stereo not drawn), for which the melting point is 250 to 252 °C. Still for that read-out and setting: with `COc1ccc(CN2Cc3cncn3C(c3ccc(-c4ccc(Cl)cc4)cc3)C2=O)cc1.Cl` (stereo not drawn) the figure was 270 to 273 °C; with `N#Cc1ccc(C2(Cc3ccccc3)C(=O)N(Cc3ccccc3)Cc3cncn32)cc1` (stereo not drawn) [Example 88, 4-(5,7-Dibenzyl-6-oxo-5,6,7,8-tetrahydro-imidazol[1,5-a]pyrazin-5-yl)-benzonitrile], 246 to 248 °C; with `C=CCN1Cc2cncn2C(c2ccc(C#N)cc2)C1=O` (stereo not drawn) [Example 4, 4-(7-Allyl-6-oxo-5,6,7,8-tetrahydro-imidazo[1,5-a]pyrazin-5-yl)-benzonitrile], 107 to 109 °C.

Molecule `Cl.N#Cc1ccc(C2C(=O)N(Cc3ccc(Cl)cc3)Cc3cncn32)cc1` (stereo not drawn) registered a melting point of 245 to 246 °C. The same measure, in the same setting: the same measure for `N#Cc1ccc(C2C(=O)N(Cc3ccccc3)Cc3cncn32)cc1` (stereo not drawn) [Example 3, 4-(7-Benzyl-6-oxo-5,6,7,8-tetrahydro-imidazo[1,5-a]pyrazin-5-yl)-benzonitrile]: 163 to 165 °C. Same read-out and setting: the same measure for `Cl.Cl.N#Cc1ccc(C2C(=O)N(CCCN3CCOCC3)Cc3cncn32)cc1` (stereo not drawn): 246 to 248 °C; for `Cl.O=C1C(c2ccccc2)n2cncc2CN1Cc1ccccc1` (stereo not drawn): 249 to 251 °C.

For `Cl.O=C1C(c2cccc(Br)c2)n2cncc2CN1CCc1cccc(Cl)c1` (stereo not drawn), the melting point was 184 to 186 °C. The same measure, in the same setting: with `Brc1ccc(C2CN(Cc3ccccc3)Cc3cncn32)cc1` (stereo not drawn) (as salt: toluene sulfonate) [Example 91, 5-(4-Bromophenyl)-7-benzyl-5,6,7,8-tetrahydro-imidazo[1,5-a]pyrazine p-toluene sulfonate] the figure was 223 to 225 °C; with `Cl.O=C1C(c2cccc(Br)c2)n2cncc2CN1CC1CC1` (stereo not drawn) [Example 32, 5-(3-Bromo-phenyl)-7-cyclopropylmethyl-7,8-dihydro-imidazo[1,5-a]pyrazin-6-one hydrochloride], 249 to 250 °C; with `O=C1C(c2cccc(Br)c2)n2cncc2CN1Cc1cccnc1` (stereo not drawn) [Example 52, 5-(3-Bromo-phenyl)-7-pyridin-3-ylmethyl-7,8-dihydro-imidazo[1,5-a]pyrazin-6-one], 50 to 54 °C. Still for that read-out and setting: with `Cl.O=C1C(c2ccc(Br)cc2)n2cncc2CN1Cc1ccccc1` (stereo not drawn) the figure was 250 °C (dec.); with `Cl.O=C1C(c2cccc(-c3ccc(F)cc3)c2)n2cncc2CN1Cc1ccccc1` (stereo not drawn), 235 to 237 °C. Still for that read-out and setting: with `Cl.O=C1Cn2cncc2CN1Cc1ccccc1` the figure was 201 to 204 °C; with `Cl.O=C1C(c2cccc(Br)c2)n2cncc2CN1CCc1ccc(Cl)cc1` (stereo not drawn), 225 to 226 °C.
